Where “and” joins values, the source holds several entries; their conditions need not be identical. Identical values can stand only once.
What was measured:
[1] = target: DRD2 (D2 long receptor) wild-type (Homo sapiens, UniProt P14416); test: Radioligand competition binding, [3H]-N-methylspiperone, HEK293T membranes; details: DRD2; [3H]-methylspiperone (0.8-1.0 nM); read-out: Ki
DRD3 wild-type = DRD3 wild-type (Homo sapiens, UniProt P35462); test: Radioligand competition binding, [3H]-N-methylspiperone; details: DRD3 wild-type; read-out: pKi ± SEM (converted)
DRD2 (D2 long receptor) [2] = target: T1, DRD2 (D2 long receptor) (Homo sapiens, UniProt P14416); test: Gαi/o-mediated cAMP inhibition (GloSensor split-luciferase cAMP reporter), HEK293T; type: cell-based; details: for response, Fig_S11d dose-response source data: replicate values; for Response, Fig_S11b dose-response: individual replicates;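 for all read-outs here: compounds applied 15 min at room temperature, then luciferin plus 400 nM isoproterenol to raise cAMP through endogenous β2-adrenergic receptors, luminescence read 15 min later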
DRD4 (D4.4 variant) = target: T2, DRD4 (D4.4 variant) (Homo sapiens, UniProt P21917); test: Gαi/o-mediated cAMP inhibition (GloSensor); type: cell-based; details: DRD4; agonist, cAMP inhibition; read-out: EC50 ± SEM
T2 sequence (P21917 1-419): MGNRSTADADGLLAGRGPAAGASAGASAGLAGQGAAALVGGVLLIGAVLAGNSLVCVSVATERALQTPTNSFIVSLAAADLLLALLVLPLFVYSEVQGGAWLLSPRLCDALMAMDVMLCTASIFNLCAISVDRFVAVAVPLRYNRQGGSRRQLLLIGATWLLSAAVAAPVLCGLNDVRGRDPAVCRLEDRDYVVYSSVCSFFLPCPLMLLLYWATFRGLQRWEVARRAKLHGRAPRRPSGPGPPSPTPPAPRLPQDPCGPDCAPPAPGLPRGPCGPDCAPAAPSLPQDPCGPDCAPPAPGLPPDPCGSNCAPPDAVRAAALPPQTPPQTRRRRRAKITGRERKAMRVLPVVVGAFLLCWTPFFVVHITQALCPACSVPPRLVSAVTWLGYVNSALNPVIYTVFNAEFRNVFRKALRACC

DRD2 F1103.28L = target: T3, DRD2 F1103.28L (Homo sapiens, UniProt P14416, F110L); test: Gαi/o-mediated cAMP inhibition (GloSensor), mutant; type: cell-based
T3 construct: expressed in transfected cells; host or cells: HEK293T (ATCC CRL-11268)

DRD2 (D2 long receptor) [3] = target: T1, DRD2 (D2 long receptor); test: β-arrestin2 recruitment (Tango), HTLA cells; type: cell-based

T1 sequence (P14416 whole entry): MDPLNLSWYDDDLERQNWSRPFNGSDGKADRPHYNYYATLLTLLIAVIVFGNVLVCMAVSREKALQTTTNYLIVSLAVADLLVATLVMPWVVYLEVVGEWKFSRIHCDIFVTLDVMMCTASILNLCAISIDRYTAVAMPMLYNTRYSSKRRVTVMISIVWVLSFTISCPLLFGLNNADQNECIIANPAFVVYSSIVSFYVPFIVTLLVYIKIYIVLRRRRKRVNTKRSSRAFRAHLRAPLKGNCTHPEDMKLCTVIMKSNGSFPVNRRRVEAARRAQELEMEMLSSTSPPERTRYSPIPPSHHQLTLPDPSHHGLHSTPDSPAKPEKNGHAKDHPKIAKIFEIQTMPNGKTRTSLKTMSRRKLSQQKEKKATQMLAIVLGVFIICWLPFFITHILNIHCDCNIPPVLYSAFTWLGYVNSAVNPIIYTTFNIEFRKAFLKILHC
DRD2 (D2 long receptor) wild-type, sequence (P14416 whole entry): as above
T3 sequence (P14416 whole entry F110L): as the sequence (P14416 whole entry) above, with F110L counted along it
DRD3 wild-type, sequence (P35462 whole entry): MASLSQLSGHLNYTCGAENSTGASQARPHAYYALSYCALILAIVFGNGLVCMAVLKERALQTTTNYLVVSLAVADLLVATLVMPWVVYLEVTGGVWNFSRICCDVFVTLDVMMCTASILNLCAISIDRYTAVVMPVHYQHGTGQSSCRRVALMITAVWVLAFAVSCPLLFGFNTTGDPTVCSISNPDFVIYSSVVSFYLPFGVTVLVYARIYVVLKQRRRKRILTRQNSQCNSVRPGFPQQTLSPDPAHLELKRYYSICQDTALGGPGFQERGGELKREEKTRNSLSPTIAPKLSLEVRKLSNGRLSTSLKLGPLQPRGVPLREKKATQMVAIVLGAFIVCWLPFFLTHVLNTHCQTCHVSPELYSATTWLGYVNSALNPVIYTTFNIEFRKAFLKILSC

CCOc1cccc2cc(C(C)NCC3(O)CCCCC3)oc12 (stereo not shown) [O4LE6]
Ki [1]: 1.91 µM and 1.9 µM | Ki (DRD3 wild-type): 0.224 µM | EC50 (DRD2 (D2 long receptor) [2]; DRD2, agonist, Gαi/o-mediated cAMP inhibition, read-out: EC50 ± SEM): 0.00057 µM | response, Fig_S11d dose-response source data (DRD2 (D2 long receptor) [2]; Log[Drug] -6.52): 93.5634 | response, Fig_S11d dose-response source data (DRD2 (D2 long receptor) [2]; Log[Drug] -7): 91.3799 and 89.9656 and 96.7642 and 92.7028 and 90.0117 and 92.9852 and 92.6706 and 90.0792 and 94.9443 | response, Fig_S11d dose-response source data (DRD2 (D2 long receptor) [2]; Log[Drug] -7.52): 89.3701 and 83.9361 and 92.3724 and 89.5789 and 91.7807 and 86.0032 and 96.0478 and 86.7857 and 84.4618 | response, Fig_S11d dose-response source data (DRD2 (D2 long receptor) [2]; Log[Drug] -8): 70.6367 and 72.3736 and 84.6805 and 78.0803 and 77.3651 and 77.1016 and 86.6519 and 79.5632 and 77.7576 | response, Fig_S11d dose-response source data (DRD2 (D2 long receptor) [2]; Log[Drug] -8.52): 93.2656 and 95.6724 and 92.9431 and 77.1769 and 79.2659 and 71.4182 and 77.4232 and 75.6176 and 79.697 | response, Fig_S11d dose-response source data (DRD2 (D2 long receptor) [2]; Log[Drug] -9): 51.5311 and 33.9143 and 52.5981 and 65.5842 and 66.7322 and 55.2712 and 58.2302 and 71.02 and 60.3368 | response, Fig_S11d dose-response source data (DRD2 (D2 long receptor) [2]; Log[Drug] -9.52): 27.2398 and 43.5167 and 44.7822 and 40.3099 and 41.1379 and 42.7564 and 40.5085 and 50.7403 and 30.2265 | response, Fig_S11d dose-response source data (DRD2 (D2 long receptor) [2]; Log[Drug] -10): 9.9455 and 25.9991 and 17.2652 and 20.7754 and 27.795 and 3.65 and 25.4283 and 30.0426 and 37.3152 | response, Fig_S11d dose-response source data (DRD2 (D2 long receptor) [2]; Log[Drug] -10.52): 8.06 and 24.1134 and 23.7164 and -2.2029 and 14.9603 and -7.6605 and -4.2473 and 22.3855 and 15.9154 | response, Fig_S11d dose-response source data (DRD2 (D2 long receptor) [2]; Log[Drug] -11): 4.9334 and 7.216 and -1.766 and -6.3996 and -4.3107 and -5.3646 and 21.048 and 18.6238 and 5.767 | response, Fig_S11d dose-response source data (DRD2 (D2 long receptor) [2]; Log[Drug] -11.52): 10.5658 and 8.68 and -1.4434 and 5.588 and 4.9296 and 13.8311 and 19.0585 and 28.0698 and 34.2223 | response, Fig_S11d dose-response source data (DRD2 (D2 long receptor) [2]; Log[Drug] -12): -7.7209 and 3.569 and -11.1202 and -5.7974 and -18.3122 and 14.3957 and 12.4212 and 21.7836 and -1.1209 | Emax (DRD2 (D2 long receptor) [2]; HEK-293T, read-out: Emax relative to quinpirole response, DRD2, cAMP inhibition): 94.8% | Response, Fig_S11b dose-response (DRD2 (D2 long receptor) [2]; Log[Drug] -5): 94.6799 and 95.4987 and 95.201 and 94.3966 and 96.6361 and 95.6198 and 95.7635 and 88.9256 and 95.1617 | Response, Fig_S11b dose-response (DRD2 (D2 long receptor) [2]; Log[Drug] -5.52): 94.4814 and 96.3424 and 99.171 and 96.9372 and 94.2837 and 95.6198 and 98.4051 and 98.5221 and 95.5796 | Response, Fig_S11b dose-response (DRD2 (D2 long receptor) [2]; Log[Drug] -6): 96.5905 and 98.1785 and 100.163 and 88.2615 and 91.4043 and 96.2597 and 93.8409 and 94.9611 and 95.7301 | Response, Fig_S11b dose-response (DRD2 (D2 long receptor) [2]; Log[Drug] -6.52): 93.5634 and 99.7168 and 93.0671 and 101.473 and 96.4667 and 100.061 and 98.4218 and 97.9202 and 92.704 | Response, Fig_S11b dose-response (DRD2 (D2 long receptor) [2]; Log[Drug] -7): 91.3799 and 89.9656 and 96.7642 and 92.7028 and 90.0117 and 92.9852 and 92.6706 and 90.0792 and 94.9443 | Response, Fig_S11b dose-response (DRD2 (D2 long receptor) [2]; Log[Drug] -7.52): 89.3701 and 83.9361 and 92.3724 and 89.5789 and 91.7807 and 86.0032 and 96.0478 and 86.7857 and 84.4618 | Response, Fig_S11b dose-response (DRD2 (D2 long receptor) [2]; Log[Drug] -8): 70.6367 and 72.3736 and 84.6805 and 78.0803 and 77.3651 and 77.1016 and 86.6519 and 79.5632 and 77.7576 | Response, Fig_S11b dose-response (DRD2 (D2 long receptor) [2]; Log[Drug] -8.52): 93.2656 and 95.6724 and 92.9431 and 77.1769 and 79.2659 and 71.4182 and 77.4232 and 75.6176 and 79.697 | Response, Fig_S11b dose-response (DRD2 (D2 long receptor) [2]; Log[Drug] -9): 51.5311 and 33.9143 and 52.5981 and 65.5842 and 66.7322 and 55.2712 and 58.2302 and 71.02 and 60.3368 | Response, Fig_S11b dose-response (DRD2 (D2 long receptor) [2]; Log[Drug] -11): 4.9334 | Response, Fig_S11b dose-response (DRD2 (D2 long receptor) [2]; Log[Drug] -11.52): 10.5658 and 8.68 and -1.4434 and 5.588 and 4.9296 and 13.8311 and 19.0585 and 28.0698 and 34.2223 | Response, Fig_S11b dose-response (DRD2 (D2 long receptor) [2]; Log[Drug] -12): -7.7209 and 3.569 and -11.1202 and -5.7974 and -18.3122 and 14.3957 and 12.4212 and 21.7836 and -1.1209 | EC50 (DRD4 (D4.4 variant)): > 10 µM | EC50 (DRD2 F1103.28L; DRD2 F1103.28L (b138 head prints DRD2 F1063.28L)): 0.0113 ± 0.00227 µM | Emax (DRD2 F1103.28L; read-out: Emax relative to quinpirole response, DRD2 F1103.28L): 61% | EC50 (DRD2 (D2 long receptor) [3]; DRD2, β-arrestin2 recruitment (Tango), read-out: EC50 ± SEM): 0.0432 ± 0.0123 µM | response, Fig_S11c dose-response source data (DRD2 (D2 long receptor) [3]; Fig_S11c, Log[Drug] -5, replicate values): 112.633 and 105.275 and 98.5438 and 105.099 and 112.565 | response, Fig_S11e dose-response source data (DRD2 (D2 long receptor) [3]; Log[Drug] -6.52, replicate values): 78.7922 | response, Fig_S11e dose-response source data (DRD2 (D2 long receptor) [3]; Log[Drug] -7, replicate values): 72.0078 and 74.6368 and 66.9645 and 59.2359 and 63.6719 and 58.7266 and 59.326 and 73.941 and 65.8379 | response, Fig_S11e dose-response source data (DRD2 (D2 long receptor) [3]; Log[Drug] -7.52, replicate values): 37.8418 and 44.9592 and 58.6118 and 43.0054 and 55.0074 and 48.586 and 48.419 and 72.5528 and 64.0624 | response, Fig_S11e dose-response source data (DRD2 (D2 long receptor) [3]; Log[Drug] -8, replicate values): 15.3268 and 15.1148 and 16.7449 and 27.4037 and 26.6311 and 23.8074 and 19.9269 and 24.9446 and 21.2413
